The values that follow come from ChEMBL document CHEMBL1201862, “PubChem BioAssay data set” (2004).

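1) Cells in 96-well plates. 2) Compound, 48 h, 5 concentrations. 3) Linear interpolation between surrounding doses. 4) Unreached endpoint = highest concentration. Abbreviation: GI50, concentration required for 50% inhibition of growth.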 Active and inactive are the calls of the source. No stated cut-off is given here; in the data, active = GI50 up to about 1.1 µM and inactive = higher. Some results are limits rather than exact numbers.

Test systems include UO-31; HCT-15; HOP-92; SK-MEL-2; HOP-62; UACC-62; TK-10; OVCAR-8; SK-OV-3; OVCAR-5; OVCAR-3; HCT-116; NCI-H226; HT-29; SF-295; K562; A498.
Common to all, as to experiment: NCI-60 cell line screen, 48 h

Regarding `Nc1nc(O)c2c(ncn2CCO)n1`, the GI50 in the test on UO-31 was > 100 µM (inactive); with HCT-15, above 100 µM; in the test with HOP-92, > 100 µM (inactive); in the test on SK-MEL-2, > 100 µM (inactive); in the test with HOP-62, > 100 µM (inactive); in the test on UACC-62 it was > 100 µM (inactive). Also, the GI50 in the test with TK-10, in the test on OVCAR-8, in the test with SK-OV-3, with OVCAR-5, in the test on OVCAR-3 and in the test on HCT-116 was > 100 µM (inactive) throughout. The GI50 in the test with NCI-H226, in the test on HT-29 and in the test with SF-295 was > 100 µM (inactive) throughout.

`NC1=NS(=O)(=O)Nc2nc(-c3ccccc3)c(-c3ccccc3)nc21`: the GI50 with UO-31 is > 100 µM (inactive); in the test with HCT-15, above 100 µM; in the test on K562, > 100 µM (inactive); with HOP-92, > 100 µM (inactive); with SK-MEL-2, > 100 µM (inactive); with UACC-62 it was > 100 µM (inactive). Further, the GI50 with TK-10, with OVCAR-8, with SK-OV-3, with OVCAR-5, in the test with OVCAR-3 and in the test on HCT-116 was > 100 µM (inactive) throughout. For the same molecule, the GI50 with NCI-H226, with HT-29 and in the test on SF-295 was > 100 µM (inactive) in each case.

Take `Cc1cc(NCCCCCCCCNc2cc(C)nc3cc(N)ccc23)c2ccc(N)cc2n1`: the GI50 in the test with UO-31 was > 100 µM (inactive); in the test with HCT-15, 41.5 µM; in the test with K562, 1.95 µM (inactive); in the test on A498, 39.6 µM (inactive); in the test on SK-MEL-2 it was 13.6 µM (inactive); in the test with HOP-62, 26.9 µM (inactive). Also, the GI50 with UACC-62 is 17 µM (inactive); in the test on TK-10, 44.9 µM (inactive); in the test on OVCAR-8, 17.2 µM (inactive); in the test on SK-OV-3, 38.5 µM (inactive); in the test on OVCAR-5, 22.5 µM (inactive); in the test with OVCAR-3, 14.9 µM (inactive). Also, the GI50 is 24.4 µM (inactive) in the test on NCI-H226, 21.8 µM (inactive) in the test on HT-29 and 18.2 µM (inactive) in the test on SF-295.

In the case of `O=c1c2cccnc2ncn1CCN1CCCCC1`, the GI50 with UO-31, in the test on K562, in the test on HOP-92, in the test with SK-MEL-2, in the test with HOP-62 and in the test on UACC-62 was > 100 µM (inactive) throughout. For the same molecule, the GI50 with TK-10, in the test on OVCAR-8, in the test with SK-OV-3, in the test with OVCAR-5, in the test on OVCAR-3 and in the test on HCT-116 was > 100 µM (inactive) throughout. For the same molecule, the GI50 in the test with NCI-H226, in the test with HT-29 and with SF-295 was > 100 µM (inactive) each time.

Turning to `CC(C)(C)c1cc2c3c(c1)C(C(F)(F)F)(C(F)(F)F)O[Te]3(C)OC2(C(F)(F)F)C(F)(F)F`, the GI50 was > 100 µM (inactive) with UO-31; above 100 µM with HCT-15; > 100 µM (inactive) in the test on K562; > 100 µM (inactive) with SK-MEL-2; > 100 µM (inactive) in the test on HOP-62; > 100 µM (inactive) in the test with UACC-62. For the same molecule, the GI50 in the test on TK-10 is > 100 µM (inactive); with OVCAR-8, > 10 µM (inactive); with SK-OV-3, > 100 µM (inactive); in the test with OVCAR-5, > 100 µM (inactive); in the test with OVCAR-3 it was > 100 µM (inactive); in the test on HCT-116 it was > 100 µM (inactive). Also, the GI50 in the test with NCI-H226, with HT-29 and in the test with SF-295 was > 100 µM (inactive) throughout.

`Cn1ccc(=NS(=O)(=O)c2ccccc2)cc1`: the GI50 in the test on UO-31, in the test on K562, with HOP-92, in the test on A498, in the test with SK-MEL-2 and in the test on HOP-62 was > 100 µM (inactive) each time. The GI50 in the test on TK-10, in the test on OVCAR-8, with SK-OV-3, in the test with OVCAR-5, in the test on OVCAR-3 and in the test with HCT-116 was > 100 µM (inactive) each time. Besides, the GI50 in the test with HT-29 and with SF-295 was > 100 µM (inactive) each time.

Regarding `CCCCCCCCCC1C(C)c2c([nH]c3ccccc23)C2C(=O)N(c3ccccc3)C(=O)C21` (configuration not stated), the GI50 in the test with UO-31 was 13 µM (inactive); in the test with HCT-15 it was 11 µM; with K562 it was 3.67 µM (inactive); in the test on A498, 19.2 µM (inactive); in the test on SK-MEL-2 it was 16.8 µM (inactive); in the test on HOP-62 it was 17.2 µM (inactive). For the same molecule, the GI50 with UACC-62 was 18.3 µM (inactive); in the test with TK-10, 28 µM (inactive); with OVCAR-8 it was 7.78 µM (inactive); in the test with SK-OV-3, 18.2 µM (inactive); in the test on OVCAR-5, 17.4 µM (inactive); in the test with OVCAR-3, 3.43 µM (inactive). Moreover, the GI50 in the test on HCT-116 was 2.94 µM (inactive); in the test on NCI-H226, 12.2 µM (inactive); with HT-29, 10.8 µM (inactive); in the test on SF-295, 15.4 µM (inactive).

On to `CC1NS(=O)(=O)N(C)C1=O` (configuration not stated), for which the GI50 in the test on HCT-15 is above 100 µM; with K562, > 100 µM (inactive); with HOP-92, > 100 µM (inactive); in the test with SK-MEL-2, > 100 µM (inactive); in the test with HOP-62 it was > 100 µM (inactive); in the test with UACC-62, > 100 µM (inactive). Besides, the GI50 with TK-10, with OVCAR-8, with SK-OV-3, in the test with OVCAR-5, in the test with OVCAR-3 and in the test on HCT-116 was > 100 µM (inactive) in each case. Also, the GI50 in the test with NCI-H226 and in the test on SF-295 was > 100 µM (inactive) throughout.

Regarding `N#Cc1c2nc3ccccc3nc2n2ccccc12`, the GI50 in the test with UO-31 is > 100 µM (inactive); with HCT-15 it was above 100 µM; in the test on K562, > 100 µM (inactive); with A498 it was 76 µM (inactive); in the test with SK-MEL-2, > 100 µM (inactive); in the test on HOP-62 it was > 100 µM (inactive). Further, the GI50 is > 100 µM (inactive) in the test with UACC-62; > 100 µM (inactive) in the test on TK-10; > 100 µM (inactive) in the test on OVCAR-8; 0.63 µM (active) in the test with SK-OV-3; > 100 µM (inactive) in the test with OVCAR-5; > 100 µM (inactive) in the test on OVCAR-3. Besides, the GI50 in the test with HCT-116 is > 100 µM (inactive).

As to `Cc1ccc(O)c(C(=O)CCCC(=O)c2cc(C)ccc2O)c1`, the GI50 in the test on UO-31 was 44.9 µM (inactive); in the test on HCT-15 it was 45.8 µM; with K562, 35 µM (inactive); in the test with HOP-92, 61 µM (inactive); with A498, > 100 µM (inactive); with SK-MEL-2, > 100 µM (inactive). The GI50 was > 100 µM (inactive) in the test with HOP-62; > 100 µM (inactive) in the test on UACC-62; 48.1 µM (inactive) with TK-10; > 100 µM (inactive) with OVCAR-8; > 100 µM (inactive) in the test with SK-OV-3; > 100 µM (inactive) in the test with OVCAR-5. The GI50 with NCI-H226, in the test with HT-29 and in the test with SF-295 was > 100 µM (inactive) throughout.
